In article PMC8740778, “Translational Pharmacokinetic–Pharmacodynamic Modeling of NaV1.7 Inhibitor MK-2075 to Inform Human Efficacious Dose” (Frontiers in Pharmacology, 2021):
Marks after values point to notes of the source that are not given here.

Assays:
[1] = set-up: method as in Rothenberg et al., 2019; details: healthy volunteers; no exposure-related pattern; ref Rothenberg et al., 2019; cited from earlier work
BALB/c male mice = assay: Mouse tail flick latency; format: in vivo; details: at clinical efficacious concentrations
[2] = trough plasma concentration just prior to patient-controlled subsequent dose; postoperative pain; ref Dahlstrom et al., 1982 (morphine), Lehmann et al., 1990 (tramadol); cited from earlier work

Row | Structure (SMILES) | Hyposmia (reduced sense of smell) in clinical study [1] | Percent of the maximum possible effect in mouse tail flick latency (BALB/c male mice) | Clinical MEC, mean (range) [2]
1 | O=C(NS(=O)(=O)N1CCC1)c1cc(C2CC2)c(OCC23CC4CC(CC(C4)C2)C3)cc1F [GDC-0276] | a couple of incidents of hyposmia were reported |  | 
2 | CN1CC[C@]23c4c5ccc(O)c4O[C@H]2[C@@H](O)C=C[C@H]3[C@H]1C5 [Morphine] |  | approximately 50% | 0.074 (0.032–0.116) ^b µM
3 | COc1cccc(C2(O)CCCCC2CN(C)C)c1 (centres unmarked) [Tramadol] |  | approximately 50% | 1.092 (0.077–3.744) ^c µM
